Where two headings read alike, the source gives them in different places.

For test [1], the target named is FAAH (Mus musculus (Mouse), UniProt O08914). The test is described as follows: in vivo. The settings on record: po, read-out: FAAH (mouse) % inh. 5 mg/kg.
In test [2] the target is FAAH (Homo sapiens (Human), UniProt O00519). Description: biochemical. Particulars: for inhibition at 1 µM: read-out: FAAH (human) % inh. 1 μM.
The target in test [3] is MAGL (Mus musculus (Mouse), UniProt O35678). The test is described as follows: in vivo. Particulars: po, read-out: MAGL (mouse) % inh. 5 mg/kg.
Test [4] deals with MAGL (Homo sapiens (Human), UniProt Q99685). The test is described as follows: biochemical. The settings on record: for inhibition at 1 µM: read-out: MAGL (human) % inh. 1 μM.

As to `C[C@@H]1CN(Cc2cc(Cl)cc(Oc3ncccn3)c2)CCN1C(=O)Oc1cncc(C#N)c1` [Example 86, 5-Cyanopyridin-3-yl (R)-4-(3-chloro-5-(pyrimidin-2-yloxy)benzyl)-2-methylpiperazine-1-carboxylate], the inhibition at 5 mg/kg in test [1] and in test [3] was more than 75% each time. Moreover, the IC50 in test [2] is less than 100 nM; in test [4], 100 to 1000 nM. Further, the inhibition at 1 µM in test [2] and in test [4] was more than 75% each time.

Turning to `CC(=O)Nc1cncc(OC(=O)N2CCN(Cc3ccc(Cl)c(OC(C)C)c3)CC2)c1` [Example 52, 5-Acetamidopyridin-3-yl 4-(4-chloro-3-isopropoxybenzyl)pipera-zine-1-carboxylate], the inhibition at 5 mg/kg is more than 75% in test [1] and 0 to 25% in test [3]. The inhibition at 1 µM in test [2] and in test [4] was more than 75% throughout. Moreover, the concentration for half-maximal inhibition (IC50) was 100 to 1000 nM in test [2] (read-out: FAAH (human) IC50) and less than 100 nM in test [4].

Take `O=C(Oc1cncc(C(F)(F)F)c1)N1CCC2(CC1)CN(Cc1cccc(Oc3cncc(C(F)(F)F)c3)c1)C2` [Example 38, 5-(Trifluoromethyl)pyridin-3-yl 2-(3-((5-(trifluoromethyl)pyridin-3-yl)oxy)benzyl)-2,7-diazaspiro[3.5]nonane-7-carboxylate]: the inhibition at 5 mg/kg was more than 75% in test [1] and 0 to 25% in test [3]. For the same compound, the inhibition at 1 µM in test [2] and in test [4] was more than 75% each time. In addition, the IC50 in test [2] (read-out: FAAH (human) IC50) and in test [4] (read-out: MAGL (human) IC50) was less than 100 nM each time.

The record behind these values is patent US11129827B2 (priority 2017, dated 2021).
